According to PubChem BioAssay AID328 (DTP/NCI, 2004):
Where “and” joins values, the source holds several entries; their conditions need not be identical. Equal entries are not always repeated. Inconclusive results and toxic doses are left out. Rule for the calls: active = survival T/C of 150% or more; inactive = T/C below 125% in these data.

System: BDF1 mice, P388 leukemia ip, median survival T/C
Experiment: NCI In Vivo Anticancer Drug Screen. Data for tumor model P388 Leukemia (intraperitoneal) in B6D2F1 (BDF1) mice
Settings: endpoint: median survival time, higher = longer survival
Procedure, shortened: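 Steps: implant the tumour, treat one group with compound and another with vehicle, record survival, then divide treated by control.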

[1] = dose: 100.0 mg/kg/injection, schedule: Q04DX003 (ip), vehicle: saline
[2] = dose: 200.0 mg/kg/injection, schedule: Q04DX003 (ip), vehicle: saline
[3] = dose: 400.0 mg/kg/injection, schedule: Q04DX003 (ip), vehicle: saline
[4] = dose: 50.0 mg/kg/injection, schedule: Q01DX009 (ip), vehicle: saline with Tween-80
[5] = dose: 100.0 mg/kg/injection, schedule: Q01DX009 (ip), vehicle: saline with Tween-80
[6] = dose: 200.0 mg/kg/injection, schedule: Q01DX009 (ip), vehicle: saline with Tween-80
[7] = dose: 50.0 mg/kg/injection, schedule: Q01DX009 (ip), vehicle: saline
[8] = dose: 100.0 mg/kg/injection, schedule: Q01DX009 (ip), vehicle: saline
[9] = dose: 100.0 mg/kg/injection, schedule: Q04DX003 (ip), vehicle: saline with Tween-80
[10] = dose: 200.0 mg/kg/injection, schedule: Q04DX003 (ip), vehicle: saline with Tween-80
[11] = dose: 400.0 mg/kg/injection, schedule: Q04DX003 (ip), vehicle: saline with Tween-80
[12] = dose: 25.0 mg/kg/injection, schedule: Q01DX009 (ip), vehicle: saline
[13] = dose: 50.0 mg/kg/injection, schedule: Q04DX003 (ip), vehicle: saline
[14] = dose: 25.0 mg/kg/injection, schedule: Q01DX009 (ip), vehicle: Klucel (hydroxypropylcellulose) (HPC)
[15] = dose: 50.0 mg/kg/injection, schedule: Q01DX009 (ip), vehicle: Klucel (hydroxypropylcellulose) (HPC)

Measured: T/C

C/C=C/c1ccc2ccc[n+](C)c2c1O
inactive: dose: 22.0 mg/kg/injection, schedule: Q04DX003 (ip), vehicle: saline sonified 100 % of control | dose: 25.0 mg/kg/injection, schedule: Q04DX003 (ip), vehicle: saline sonified 110 % of control | dose: 33.0 mg/kg/injection, schedule: Q04DX003 (ip), vehicle: saline sonified 113 % of control | dose: 75.0 mg/kg/injection, schedule: Q04DX003 (ip), vehicle: saline sonified 118 % of control

CN(N)c1cc(=O)n(C)c(=O)n1C
inactive: [1] 110 % of control | [2] 103 % of control | [3] 101 % of control

ClCc1ccc2ccccc2n1
inactive: [4] 113 % of control | [5] 122 % of control | dose: 132.0 mg/kg/injection, schedule: Q01DX009 (ip), vehicle: saline with Tween-80 113 % of control | [6] 122 % of control | dose: 300.0 mg/kg/injection, schedule: Q01DX009 (ip), vehicle: saline with Tween-80 104 % of control

C[N+](C)(C)CN1C(=O)c2ccccc2C1=O
inactive: [7] 87 % of control | [8] 100 % of control

COC(=O)C(C#N)Cc1ccccc1Cl (stereo not given)
inactive: dose: 50.0 mg/kg/injection, schedule: Q04DX003 (ip), vehicle: saline with Tween-80 101 % of control | [9] 98 % of control | [10] 98 % of control | [11] 97 % of control

O=C(O)c1cc(Br)cc(SSc2cc(Br)cc(C(=O)O)c2O)c1O
inactive: dose: 25.0 mg/kg/injection, schedule: Q01DX009 (ip), vehicle: saline with Tween-80 103 % of control | [4] 94 % of control | [5] 106 % of control

Cc1cc([N+](=O)[O-])cc([N+](=O)[O-])c1OC(=O)c1ccc(N=C(N)N)cc1
inactive: [12] 110 % of control | [7] 110 % of control | [13] 109 % of control | [8] 110 % of control | [1] 100 % of control | dose: 150.0 mg/kg/injection, schedule: Q01DX009 (ip), vehicle: saline 110 % of control | [2] 90 % of control

C/C(CC(C)(C)c1ccccc1)=N/NC(N)=O
inactive: dose: 50.0 mg/kg/injection, schedule: Q04DX003 (ip), vehicle: saline sonified 90 % of control | dose: 100.0 mg/kg/injection, schedule: Q04DX003 (ip), vehicle: saline sonified 100 % of control | dose: 200.0 mg/kg/injection, schedule: Q04DX003 (ip), vehicle: saline sonified 95 % of control

CS(=O)(=O)OCCCCCOS(C)(=O)=O
inactive: dose: 12.5 mg/kg/injection, schedule: Q01DX009 (ip), vehicle: saline 95 % of control | [12] 100 % of control | [13] 113 % of control

C[n+]1ccc2cc(-c3ccccc3)c3ccccc3c2c1
inactive: dose: 0.06 mg/kg/injection, schedule: Q01DX009 (ip), vehicle: water 100 % of control | dose: 0.12 mg/kg/injection, schedule: Q01DX009 (ip), vehicle: water 88 % of control | dose: 0.25 mg/kg/injection, schedule: Q01DX009 (ip), vehicle: water 89 % of control | dose: 0.5 mg/kg/injection, schedule: Q01DX009 (ip), vehicle: water 100 % of control | dose: 1.0 mg/kg/injection, schedule: Q01DX009 (ip), vehicle: water 100 % of control and 101 % of control | dose: 2.0 mg/kg/injection, schedule: Q01DX009 (ip), vehicle: water 101 % of control | dose: 4.0 mg/kg/injection, schedule: Q01DX009 (ip), vehicle: water 99 % of control

CCCCCCSc1ncnc2nc[nH]c12
inactive: [5] 109 % of control | [9] 100 % of control | [6] 100 % of control | [10] 100 % of control | [11] 95 % of control

Nc1c(C(=O)O)ccc2c1C(=O)c1ccccc1C2=O
inactive: dose: 44.0 mg/kg/injection, schedule: Q04DX003 (ip), vehicle: gum acacia 87 % of control | dose: 50.0 mg/kg/injection, schedule: Q01DX009 (ip), vehicle: gum acacia 92 % of control | dose: 67.0 mg/kg/injection, schedule: Q04DX003 (ip), vehicle: Klucel (hydroxypropylcellulose) (HPC) 115 % of control | dose: 67.0 mg/kg/injection, schedule: Q04DX003 (ip), vehicle: gum acacia 100 % of control | dose: 100.0 mg/kg/injection, schedule: Q01DX009 (ip), vehicle: gum acacia 103 % of control | dose: 100.0 mg/kg/injection, schedule: Q04DX003 (ip), vehicle: Klucel (hydroxypropylcellulose) (HPC) 120 % of control | dose: 100.0 mg/kg/injection, schedule: Q04DX003 (ip), vehicle: gum acacia 87 % of control | dose: 150.0 mg/kg/injection, schedule: Q04DX003 (ip), vehicle: Klucel (hydroxypropylcellulose) (HPC) 110 % of control | dose: 150.0 mg/kg/injection, schedule: Q04DX003 (ip), vehicle: gum acacia 116 % of control

O=C(C[n+]1cc2ccccc2c2ccccc21)c1ccccc1
inactive: [14] 104 % of control | dose: 35.0 mg/kg/injection, schedule: Q01DX009 (ip), vehicle: Klucel (hydroxypropylcellulose) (HPC) 100 % of control and 108 % of control | [15] 100 % of control and 120 % of control | dose: 75.0 mg/kg/injection, schedule: Q01DX009 (ip), vehicle: Klucel (hydroxypropylcellulose) (HPC) 115 % of control | dose: 100.0 mg/kg/injection, schedule: Q01DX009 (ip), vehicle: Klucel (hydroxypropylcellulose) (HPC) 114 % of control

CCOC(=O)N1C=Cn2c(cnc2C)C1OCC (stereo not given)
inactive: [1] 102 % of control | [2] 112 % of control | [3] 116 % of control

CP1(=O)CC(=O)CCC(=O)C1
inactive: dose: 50.0 mg/kg/injection, schedule: Q04DX002 (ip), vehicle: saline 104 % of control | dose: 100.0 mg/kg/injection, schedule: Q04DX002 (ip), vehicle: saline 105 % of control | dose: 200.0 mg/kg/injection, schedule: Q04DX002 (ip), vehicle: saline 106 % of control

C=CCOCCN1CCN(CCCN2c3ccccc3Sc3ccc(C(F)(F)F)cc32)CC1
inactive: dose: 5.0 mg/kg/injection, schedule: Q04DX003 (ip), vehicle: saline 104 % of control | dose: 10.0 mg/kg/injection, schedule: Q04DX003 (ip), vehicle: saline 121 % of control

COc1cc([N+](=O)[O-])c(Cl)cc1NS(=O)(=O)c1ccccc1
inactive: dose: 67.0 mg/kg/injection, schedule: Q01DX009 (ip), vehicle: saline with Tween-80 100 % of control and 108 % of control | [5] 100 % of control and 111 % of control | [9] 103 % of control | dose: 150.0 mg/kg/injection, schedule: Q01DX009 (ip), vehicle: saline with Tween-80 100 % of control and 111 % of control | [6] 120 % of control | [10] 92 % of control | dose: 400.0 mg/kg/injection, schedule: Q01DX009 (ip), vehicle: saline with Tween-80 105 % of control | [11] 96 % of control

COc1ccccc1C(=O)/C=C\c1ccc(OCc2ccccc2)cc1
inactive: [4] 89 % of control | [5] 86 % of control | [6] 87 % of control

C=CCOC(=O)c1ccco1
inactive: dose: 6.25 mg/kg/injection, schedule: Q01DX009 (ip), vehicle: Klucel (hydroxypropylcellulose) (HPC) 116 % of control | dose: 12.5 mg/kg/injection, schedule: Q01DX009 (ip), vehicle: Klucel (hydroxypropylcellulose) (HPC) 108 % of control | [14] 108 % of control | [15] 100 % of control

O=S1(=O)CCNNCC1
inactive: dose: 25.0 mg/kg/injection, schedule: Q01DX001 (ip), vehicle: saline 110 % of control | dose: 50.0 mg/kg/injection, schedule: Q01DX001 (ip), vehicle: saline 105 % of control | dose: 100.0 mg/kg/injection, schedule: Q01DX001 (ip), vehicle: saline 120 % of control | dose: 200.0 mg/kg/injection, schedule: Q01DX001 (ip), vehicle: saline 110 % of control

COc1cc2cnccc2cc1O
inactive: dose: 6.25 mg/kg/injection, schedule: Q04DX003 (ip), vehicle: water 97 % of control | dose: 12.5 mg/kg/injection, schedule: Q04DX003 (ip), vehicle: water 98 % of control | dose: 25.0 mg/kg/injection, schedule: Q04DX003 (ip), vehicle: water 118 % of control | dose: 50.0 mg/kg/injection, schedule: Q04DX003 (ip), vehicle: water 95 % of control | dose: 100.0 mg/kg/injection, schedule: Q04DX003 (ip), vehicle: water 98 % of control

O=C1C2CCCC1C(c1ccccc1)C=C2c1ccc(O)cc1 (stereo not given)
inactive: [9] 104 % of control | [10] 104 % of control | [11] 114 % of control
